The results in this text go back to patent US8445509B2, “Fused heterocyclic derivatives and use thereof” (Takeda Pharmaceutical Company Limited, priority 2008, dated 2013).

Experiment [1] deals with T1, VEGFR2 intracellular domain protein (Homo sapiens, UniProt P35968).
T1 construct: made in house; host or cells: SF-21 insect cells, recombinant baculovirus BAC-VEGFR2
Description: Vascular endothelial growth factor receptor 2 (VEGFR2) kinase inhibitory activity (AlphaScreen). The experiment is classed as biochemical. How it is done: Human vascular endothelial growth factor receptor 2 (hereinafter to be referred to as VEGFR2) gene was cloned by PCR using cDNA Libraries Human Placenta (Clontech) as a template. […] The primer base sequence is shown below.
SF-21 cells were sown at 1×10^6 cells/mL to Sf-900II SFM medium (1 L, Invitrogen) containing 10% fetal bovine serum (trace), 50 mg/L Gentamicin (Invitrogen) and 0.1% Pluronic F-68 (Invitrogen), and shaking culture was performed using a 2 L volume Erlenmeyer flask at 27° C., 100 rpm. After culturing for 24 hrs, recombinant baculovirus BAC-VEGFR2 (13.4 mL) was added to the mixture, and the mixture was further cultured for 3 days. The culture medium was centrifuged at 2,000 rpm for 5 min to give virus-infected cells. The infected cells were washed with a phosphate buffered saline (Invitrogen), centrifuged under the same conditions, and the cells were preserved at −80° C. The cryopreserved cells were thawed in ice, suspended in buffer A (50 mM Tris buffer (30 mL, pH 7.4) containing 20% glycerol, 0.15 M NaCl) supplemented with Complete Protease Inhibitor (Boehringer), and ruptured 3 times with a Polytron homogenizer (Kinematica) at 20,000 rpm for 30 sec. The ruptured medium was clarified by centrifugation at 40,000 rpm for 30 min and filtered with a 0.45 μm filter. The filtrate was passed through a column packed with Anti-FLAG M2 Affinity Gel (4 mL, Sigma) at a flow rate of about 0.5 mL/min. The column was washed with buffer A, and eluted with buffer A containing 100 μg/mL of FLAG peptide. The eluate was concentrated with Vivaspin 20 (Vivascience) having a molecular weight cut off of 30K. The buffer of this concentrate was exchanged using NAP™ 25 column (Amersham Bioscience) equilibrated with buffer A. The fractions containing intracellular domain protein of VEGFR2 were collected, glycerol was added to the final concentration of 50% and cryopreserved at −80° C.
(§1) A test compound dissolved in dimethyl sulfoxide (DMSO) was diluted with a buffer (50 mM Tris-HCl (pH 7.5), 5 mM MgCl2, 5 mM MnCl2, 2 mM dithiothreitol, 0.01% Tween-20). To this compound solution (5 μL) was added a buffer (10 μL) containing 50 ng/mL of VEGFR2 intracellular domain protein and 250 ng/mL of biotin labeled polypeptide biotinyl-poly-Glu:Tyr (4:1) (CIS bio International). […] The reaction solution was allowed to stand at 25° C. for 16 hrs, and the wells were counted using a plate reader (Fusion™ (PerkinElmer)). The kinase inhibitory rate (%) of the test compound was calculated by the following formula: Inhibitory rate (%)=(1−(count of test compound−blank)÷(control−blank))×100
(§2) The count of the solution reacted without addition of the compound was used as a “control”, and the count of the solution without the compound and ATP was used as a “blank”.

Experiment [2] relates to Human umbilical vein-derived vascular endothelial cells (HUVEC). Description: Vascular endothelial cell proliferation inhibitory test (VEGF-stimulated HUVEC). It is filed as cell-based. To be noted: 120 h, 5 days of culture with VEGF. Put shortly: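 HUVEC (3000 cells/well) in medium with 3% FBS, cultured overnight, then given test substance plus VEGF (120 ng/mL in the added medium). After 5 days at 37 °C, Cell Counting Kit-8 was applied for 2-3 h and A450 read. IC50 relative to no-compound wells, by logistic nonlinear least-squares fit.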

The target of experiment [3] is T2, c-Met intracellular domain protein (Homo sapiens, UniProt P08581).
T2 construct: 2.5 ng/ml of c-Met intracellular domain protein (Millipore); purchased Millipore
T2 sequence (P08581 956-1390 limits assumed): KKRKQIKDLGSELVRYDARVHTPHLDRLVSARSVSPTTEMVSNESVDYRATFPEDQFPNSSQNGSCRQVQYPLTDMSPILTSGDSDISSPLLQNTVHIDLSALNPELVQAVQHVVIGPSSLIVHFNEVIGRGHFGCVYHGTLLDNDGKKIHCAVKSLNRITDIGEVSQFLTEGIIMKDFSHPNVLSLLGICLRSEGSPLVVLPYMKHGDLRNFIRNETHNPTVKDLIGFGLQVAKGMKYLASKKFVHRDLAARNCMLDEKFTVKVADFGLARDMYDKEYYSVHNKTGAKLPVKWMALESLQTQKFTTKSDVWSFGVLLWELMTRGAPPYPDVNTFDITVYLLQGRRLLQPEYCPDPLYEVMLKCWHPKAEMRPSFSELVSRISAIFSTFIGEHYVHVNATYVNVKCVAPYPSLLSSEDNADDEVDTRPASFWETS
Description: Hepatocyte growth factor receptor (c-Met) kinase inhibitory activity (AlphaScreen). It is filed as biochemical. The following applies: for inhibition at 1 µM: 1 μM test compound, read-out: inhibitory rate (%) at 1 μM. How it is done: as §1, with “containing 2.5 ng/ml” for “containing 50 ng/mL”, “of c-Met” for “of VEGFR2”, “protein (Millipore)” for “protein”
as §2

Experiment [4] concerns the target T3, Tie2 intracellular domain protein (Homo sapiens, UniProt Q02763).
T3 construct: 50 ng/mL of Tie2 intracellular domain protein (Millipore); purchased Millipore
Description: TIE2 kinase inhibitory activity (AlphaScreen). The experiment is classed as biochemical.

Molecules are shown by their SMILES. A value given as a limit tells only on which side of the number the result lay.

T3 sequence (Q02763 770-1124 limits assumed): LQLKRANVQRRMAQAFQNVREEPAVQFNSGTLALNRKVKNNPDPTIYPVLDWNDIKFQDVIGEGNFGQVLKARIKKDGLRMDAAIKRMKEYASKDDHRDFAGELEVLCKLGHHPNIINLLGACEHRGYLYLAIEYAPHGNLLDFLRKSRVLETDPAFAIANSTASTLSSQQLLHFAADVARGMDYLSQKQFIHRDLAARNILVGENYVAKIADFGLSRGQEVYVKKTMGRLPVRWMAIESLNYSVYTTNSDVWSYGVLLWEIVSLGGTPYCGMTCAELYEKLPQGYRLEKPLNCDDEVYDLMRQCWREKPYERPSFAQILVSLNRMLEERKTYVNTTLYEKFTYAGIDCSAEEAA
T1 sequence (P35968 786-1356 limits assumed): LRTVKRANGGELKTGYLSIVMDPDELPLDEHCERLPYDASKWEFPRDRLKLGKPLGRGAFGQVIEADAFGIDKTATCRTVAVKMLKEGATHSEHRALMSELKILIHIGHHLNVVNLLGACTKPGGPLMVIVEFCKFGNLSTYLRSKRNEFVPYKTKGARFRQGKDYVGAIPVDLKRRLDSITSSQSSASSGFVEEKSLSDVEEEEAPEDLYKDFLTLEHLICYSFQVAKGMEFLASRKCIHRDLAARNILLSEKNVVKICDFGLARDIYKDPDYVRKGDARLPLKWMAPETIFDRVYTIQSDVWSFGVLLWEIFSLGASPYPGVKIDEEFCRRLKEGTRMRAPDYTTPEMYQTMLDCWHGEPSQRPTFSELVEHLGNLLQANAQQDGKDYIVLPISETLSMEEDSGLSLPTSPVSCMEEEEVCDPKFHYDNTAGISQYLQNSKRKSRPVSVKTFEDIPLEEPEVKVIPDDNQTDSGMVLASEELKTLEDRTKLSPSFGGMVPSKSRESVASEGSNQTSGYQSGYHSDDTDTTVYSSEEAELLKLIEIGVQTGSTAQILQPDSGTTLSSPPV

As to `Cc1ccc(C(=O)Nc2ccc(Oc3ccc4nc(NC(=O)C5CC5)cn4c3)c(Cl)c2)c(=O)n1-c1ccc(F)cc1` [Example 57, N-[3-chloro-4-({2-[(cyclopropylcarbonyl)amino]imidazo[1,2-a]pyridin-6-yl}oxy)phenyl]-1-(4-fluorophenyl)-6-methyl-2-oxo-1,2-dihydropyridine-3-carboxamide], the IC50 is ≤ 1000 nM in experiment [1], ≤ 2000 nM in experiment [2], ≤ 1000 nM in experiment [3] and ≤ 1000 nM in experiment [4]. Moreover, the inhibition at 1 µM in experiment [3] is ≥ 80%.
With `Cc1ccc(C(=O)Nc2ccc(Oc3ccc4nc(NC(=O)C5CC5)cn4c3)cn2)c(=O)n1-c1ccc(F)cc1` [Example 60, N-[5-({2-[(cyclopropylcarbonyl)amino]imidazo[1,2-a]pyridin-6-yl}oxy)pyridin-2-yl]-1-(4-fluorophenyl)-6-methyl-2-oxo-1,2-dihydropyridine-3-carboxamide], the IC50 in experiment [1] was ≤ 1000 nM; in experiment [2] it was ≤ 2000 nM; in experiment [3], ≤ 1000 nM; in experiment [4] it was ≤ 1000 nM. Moreover, the inhibition at 1 µM in experiment [3] is ≥ 80%.
Take `Cc1ccc(C(=O)Nc2ccc(Oc3ccc4nc(NC(=O)C5CC5)cn4c3)cn2)[n+]([O-])c1-c1ccc(F)cc1` [Example 61, N-[5-({2-[(cyclopropylcarbonyl)amino]imidazo[1,2-a]pyridin-6-yl}oxy)pyridin-2-yl]-6-(4-fluorophenyl)-5-methylpyridine-2-carboxamide 1-oxide]: the IC50 in experiment [1] is ≤ 1000 nM; in experiment [2], ≤ 2000 nM; in experiment [3], ≤ 1000 nM; in experiment [4] it was ≤ 1000 nM. In addition, the inhibition at 1 µM in experiment [3] is ≥ 80%.
Take `Cc1cc(C(=O)Nc2ccc(Oc3ccc4nc(NC(=O)C5CC5)cn4c3)c(F)c2)c(=O)n(-c2ccc(F)cc2)c1` [Example 66, N-[4-({2-[(cyclopropylcarbonyl)amino]imidazo[1,2-a]pyridin-6-yl}oxy)-3-fluorophenyl]-1-(4-fluorophenyl)-5-methyl-2-oxo-1,2-dihydropyridine-3-carboxamide]: the IC50 in experiment [1] is ≤ 1000 nM; in experiment [2], ≤ 2000 nM; in experiment [3], ≤ 1000 nM; in experiment [4], ≤ 1000 nM. In addition, the inhibition at 1 µM in experiment [3] was ≥ 80%.
Consider `Cc1cc(C(=O)Nc2ccc(Oc3ccc4nc(NC(=O)C5CC5)cn4c3)c(F)c2)c(=O)n(-c2ccc(F)cc2)c1C` [Example 70, N-[4-({2-[(cyclopropylcarbonyl)amino]imidazo[1,2-a]pyridin-6-yl}oxy)-3-fluorophenyl]-1-(4-fluorophenyl)-5,6-dimethyl-2-oxo-1,2-dihydropyridine-3-carboxamide], for which the IC50 in experiment [1] was ≤ 1000 nM; in experiment [2] it was ≤ 2000 nM; in experiment [3] it was ≤ 1000 nM; in experiment [4] it was ≤ 1000 nM. Also, in experiment [3], the inhibition at 1 µM was ≥ 80%.
On to `Cc1ccc(C(=O)Nc2ccc(Oc3ccc4nc(NC(=O)C5CC5)cn4c3)cc2)[n+]([O-])c1-c1ccc(F)cc1` [Example 72, N-[4-({2-[(cyclopropylcarbonyl)amino]imidazo[1,2-a]pyridin-6-yl}oxy)phenyl]-6-(4-fluorophenyl)-5-methylpyridine-2-carboxamide 1-oxide], for which the IC50 in experiment [1] is ≤ 1000 nM; in experiment [2] it was ≤ 2000 nM; in experiment [3], ≤ 1000 nM; in experiment [4], ≤ 1000 nM. Besides, the inhibition at 1 µM in experiment [3] was ≥ 80%.
Regarding `Cc1ccc(C(=O)Nc2ccc(Oc3ccc4nc(NC(=O)C5CC5)cn4c3)c(F)c2)c(=O)n1-c1cccc(F)c1` [Example 75, N-[4-({2-[(cyclopropylcarbonyl)amino]imidazo[1,2-a]pyridin-6-yl}oxy)-3-fluorophenyl]-1-(3-fluorophenyl)-6-methyl-2-oxo-1,2-dihydropyridine-3-carboxamide], the IC50 is ≤ 1000 nM in experiment [1], ≤ 2000 nM in experiment [2], ≤ 1000 nM in experiment [3] and ≤ 1000 nM in experiment [4]. Moreover, the inhibition at 1 µM in experiment [3] is ≥ 80%.
For `Cc1ccc(C(=O)Nc2ccc(Oc3ccn4nc(NC(=O)C5CC5)nc4c3)c(F)c2)c(=O)n1-c1ccc(F)cc1` [Example 76, N-[4-({2-[(cyclopropylcarbonyl)amino][1,2,4]triazolo[1,5-a]pyridine-7-yl}oxy)-3-fluorophenyl]-1-(4-fluorophenyl)-6-methyl-2-oxo-1,2-dihydropyridine-3-carboxamide], the IC50 in experiment [1] is ≤ 1000 nM; in experiment [2], ≤ 2000 nM; in experiment [3], ≤ 1000 nM; in experiment [4] it was ≤ 1000 nM. Moreover, the inhibition at 1 µM in experiment [3] is ≥ 80%.
`Cc1c(C(=O)Nc2ccc(Oc3ccc4nc(NC(=O)C5CC5)cn4c3)c(F)c2)c(=O)n(-c2ccc(F)cc2)n1C` [Example 77, N-[4-({2-[(cyclopropylcarbonyl)amino]imidazo[1,2-a]pyridin-6-yl}oxy)-3-fluorophenyl]-2-(4-fluorophenyl)-1,5-dimethyl-3-oxo-2,3-dihydro-1H-pyrazole-4-carboxamide]: the IC50 in experiment [1] was ≤ 1000 nM; in experiment [2], ≤ 2000 nM; in experiment [3], ≤ 1000 nM; in experiment [4] it was ≤ 1000 nM. The inhibition at 1 µM in experiment [3] is ≥ 80%.
On to `CC1CCN(C(=O)Nc2ccc(Oc3ccc4nc(NC(=O)C5CC5)cn4c3)c(F)c2)C(=O)N1c1ccc(F)cc1` (stereo not drawn) [Example 80, N-[4-({2-[(cyclopropylcarbonyl)amino]imidazo[1,2-a]pyridin-6-yl}oxy)-3-fluorophenyl]-3-(4-fluorophenyl)-4-methyl-2-oxotetrahydropyrimidine-1(2H)-carboxamide], for which the IC50 was ≤ 1000 nM in experiment [1], ≤ 2000 nM in experiment [2], ≤ 1000 nM in experiment [3] and ≤ 1000 nM in experiment [4]. In addition, the inhibition at 1 µM in experiment [3] is ≥ 80%.
On to `CC1=C(c2ccc(F)cc2)C(=O)N(C(=O)Nc2ccc(Oc3ccc4nc(NC(=O)C5CC5)cn4c3)c(F)c2)CC1` [Example 81, N-[4-({2-[(cyclopropylcarbonyl)amino]imidazo[1,2-a]pyridin-6-yl}oxy)-3-fluorophenyl]-5-(4-fluorophenyl)-4-methyl-6-oxo-3,6-dihydropyridine-1(2H)-carboxamide], for which the IC50 in experiment [1] is ≤ 1000 nM; in experiment [2] it was ≤ 2000 nM; in experiment [3] it was ≤ 1000 nM; in experiment [4], ≤ 1000 nM. Further, the inhibition at 1 µM in experiment [3] was ≥ 80%.
Consider `Cc1cc(C)n(-c2ccc(F)cc2)c(=O)c1C(=O)Nc1ccc(Oc2ccc3nc(NC(=O)C4CC4)cn3c2)c(F)c1` [Example 82, N-[4-({2-[(cyclopropylcarbonyl)amino]imidazo[1,2-a]pyridin-6-yl}oxy)-3-fluorophenyl]-1-(4-fluorophenyl)-4,6-dimethyl-2-oxo-1,2-dihydropyridine-3-carboxamide], for which the IC50 in experiment [1] is ≤ 1000 nM; in experiment [2], ≤ 2000 nM; in experiment [3], ≤ 1000 nM; in experiment [4], ≤ 1000 nM. For the same compound, in experiment [3], the inhibition at 1 µM is ≥ 80%.
